From patent publication US12240853B2, “Compounds useful in HIV therapy” (GlaxoSmithKline Intellectual Property (No.2) Limited, priority 2019, dated 2025)
Read-outs that look alike come from different tables or passages of the source.

Assay: Example 18 cynomolgus monkey PK study (SC and IM)
Format: in vivo, cynomolgus monkeys
Source text: Example 18 referenced herein was made in accordance with Synthesis B. Six male cynomolgus monkeys (+1 spare) were selected from the Testing Facility's colony of non-naïve animals. The animals were assigned to the study based on acceptable health as determined by a Testing Facility veterinarian. Six animals were selected and placed into two groups of three animals each. Fasting of the animals before or after dosing was not required.
[…] […] The animals were manually restrained for dosing and were not sedated. The dose sites were clipped of hair and wiped with alcohol before dosing. All dosing was performed as detailed in the study protocol and was completed without incident.
Blood samples were collected from the study animals as detailed in the sample collection Table 39 below.
Blood samples were collected by venipuncture of a cephalic vein. For PK, blood was transferred to a blood collection tube containing NaF/Na2EDTA anticoagulant, mixed by inversion, and maintained on wet ice until processing. The blood samples were centrifuged at 2200×g for 10 minutes at 5° C. to isolate plasma. The resulting plasma samples were transferred to individual polypropylene tubes in a 96-well plate format and immediately placed on dry ice until storage at nominally −20° C. prior to shipment for analysis.
The PK plasma samples were analyzed approximately every two weeks by the Testing Facility to determine the concentration of Example 18 (prodrug) and parent using an LC-MS/MS Research Grade Assay (RGA-1) with sensitivity to 0.1 ng/mL. Following interim review of sample analysis data, analysis for Example 18 (prodrug) was discontinued after the Day 57 sample collections. The bioanalytical report and sample concentration data are presented in Tables 40 and 41, and mean concentration-time profiles are shown in FIGS. 29 and 30

C#C[C@]1(COC(=O)CCCCCCCCC)O[C@@H](n2cnc3c(N)nc(F)nc32)C[C@@H]1OC(=O)CCCCCCCCC [Example 18, (2R,3S,5R)-5-(6-amino-2-fluoro-9H-purin-9-yl)-2-((decanoyloxy)methyl)-2-ethynyltetrahydrofuran-3-yl Decanoate]
Example 18 plasma concentrations (IM EFdA, Monkey 2001, 43 days): BQL (BQL—Below Quantitation Limit, <0.100 ng/mL) | Example 18 plasma concentrations (IM EFdA, Monkey 2001, 57 days): BQL (BQL—Below Quantitation Limit, <0.100 ng/mL) | EFdA plasma concentrations (IM EFdA, Monkey 2002, 0.021 days): BQL (BQL—Below Quantitation Limit, <0.100 ng/mL) | Example 18 plasma concentrations (IM EFdA, Monkey 2002, 36 days): BQL (BQL—Below Quantitation Limit, <0.100 ng/mL) | Example 18 plasma concentrations (IM EFdA, Monkey 2002, 39 days): BQL (BQL—Below Quantitation Limit, <0.100 ng/mL) | Example 18 plasma concentrations (IM EFdA, Monkey 2002, 46 days): BQL (BQL—Below Quantitation Limit, <0.100 ng/mL) | Example 18 plasma concentrations (IM EFdA, Monkey 2002, 50 days): BQL (BQL—Below Quantitation Limit, <0.100 ng/mL) | Example 18 plasma concentrations (IM EFdA, Monkey 2003, 29 days): BQL (BQL—Below Quantitation Limit, <0.100 ng/mL) | Example 18 plasma concentrations (IM EFdA, Monkey 2003, 53 days): BQL (BQL—Below Quantitation Limit, <0.100 ng/mL) | Example 18 plasma concentrations (IM equivalent of EFdA, Monkey 2001, 25 days): BQL (BQL—Below Quantitation Limit, <0.100 ng/mL) | Example 18 plasma concentrations (IM equivalent of EFdA, Monkey 2001, 32 days): BQL (BQL—Below Quantitation Limit, <0.100 ng/mL) | Example 18 plasma concentrations (IM equivalent of EFdA, Monkey 2001, 39 days): BQL (BQL—Below Quantitation Limit, <0.100 ng/mL) | Example 18 plasma concentrations (IM equivalent of EFdA, Monkey 2001, 53 days): BQL (BQL—Below Quantitation Limit, <0.100 ng/mL) | Example 18 plasma concentrations (IM equivalent of EFdA, Monkey 2002, 32 days): BQL (BQL—Below Quantitation Limit, <0.100 ng/mL) | Example 18 plasma concentrations (IM equivalent of EFdA, Monkey 2002, 57 days): BQL (BQL—Below Quantitation Limit, <0.100 ng/mL) | EFdA plasma concentrations (IM equivalent of EFdA, Monkey 2003, 0.021 days): BQL (BQL—Below Quantitation Limit, <0.100 ng/mL) | Example 18 plasma concentrations (IM equivalent of EFdA, Monkey 2003, 32 days): BQL (BQL—Below Quantitation Limit, <0.100 ng/mL) | Example 18 plasma concentrations (IM equivalent of EFdA, Monkey 2003, 39 days): BQL (BQL—Below Quantitation Limit, <0.100 ng/mL) | Example 18 plasma concentrations (IM equivalent of EFdA, Monkey 2003, 50 days): BQL (BQL—Below Quantitation Limit, <0.100 ng/mL) | Example 18 plasma concentrations (IM equivalent of EFdA, Monkey 2003, 57 days): BQL (BQL—Below Quantitation Limit, <0.100 ng/mL) | Example 18 plasma concentrations (IM, Monkey 2001, 36 days): BQL (BQL—Below Quantitation Limit, <0.100 ng/mL) | Example 18 plasma concentrations (IM, Monkey 2001, 46 days): BQL (BQL—Below Quantitation Limit, <0.100 ng/mL) | Example 18 plasma concentrations (IM, Monkey 2001, 50 days): BQL (BQL—Below Quantitation Limit, <0.100 ng/mL) | Example 18 plasma concentrations (IM, Monkey 2002, 43 days): BQL (BQL—Below Quantitation Limit, <0.100 ng/mL) | Example 18 plasma concentrations (IM, Monkey 2002, 53 days): BQL (BQL—Below Quantitation Limit, <0.100 ng/mL) | Example 18 plasma concentrations (IM, Monkey 2003, 36 days): BQL (BQL—Below Quantitation Limit, <0.100 ng/mL) | Example 18 plasma concentrations (IM, Monkey 2003, 43 days): BQL (BQL—Below Quantitation Limit, <0.100 ng/mL) | Example 18 plasma concentrations (SC EFdA, Monkey 1001, 22 days): BQL (BQL—Below Quantitation Limit, <0.100 ng/mL) | Example 18 plasma concentrations (SC EFdA, Monkey 1001, 29 days): BQL (BQL—Below Quantitation Limit, <0.100 ng/mL) | Example 18 plasma concentrations (SC EFdA, Monkey 1001, 43 days): BQL (BQL—Below Quantitation Limit, <0.100 ng/mL) | Example 18 plasma concentrations (SC EFdA, Monkey 1001, 46 days): BQL (BQL—Below Quantitation Limit, <0.100 ng/mL) | Example 18 plasma concentrations (SC EFdA, Monkey 1001, 53 days): BQL (BQL—Below Quantitation Limit, <0.100 ng/mL) | EFdA plasma concentrations (SC EFdA, Monkey 1002, 0.021 days): BQL (BQL—Below Quantitation Limit, <0.100 ng/mL) | Example 18 plasma concentrations (SC EFdA, Monkey 1002, 29 days): BQL (BQL—Below Quantitation Limit, <0.100 ng/mL) | Example 18 plasma concentrations (SC EFdA, Monkey 1002, 43 days): BQL (BQL—Below Quantitation Limit, <0.100 ng/mL) | Example 18 plasma concentrations (SC equivalent of EFdA, Monkey 1001, 8 days): BQL (BQL—Below Quantitation Limit, <0.100 ng/mL) | Example 18 plasma concentrations (SC equivalent of EFdA, Monkey 1001, 17 days): BQL (BQL—Below Quantitation Limit, <0.100 ng/mL) | Example 18 plasma concentrations (SC equivalent of EFdA, Monkey 1001, 19 days): BQL (BQL—Below Quantitation Limit, <0.100 ng/mL) | Example 18 plasma concentrations (SC equivalent of EFdA, Monkey 1001, 32 days): BQL (BQL—Below Quantitation Limit, <0.100 ng/mL) | Example 18 plasma concentrations (SC equivalent of EFdA, Monkey 1001, 36 days): BQL (BQL—Below Quantitation Limit, <0.100 ng/mL) | Example 18 plasma concentrations (SC equivalent of EFdA, Monkey 1001, 39 days): BQL (BQL—Below Quantitation Limit, <0.100 ng/mL) | Example 18 plasma concentrations (SC equivalent of EFdA, Monkey 1001, 50 days): BQL (BQL—Below Quantitation Limit, <0.100 ng/mL) | EFdA plasma concentrations (SC equivalent of EFdA, Monkey 1002, 0.042 days): BQL (BQL—Below Quantitation Limit, <0.100 ng/mL) | Example 18 plasma concentrations (SC equivalent of EFdA, Monkey 1002, 22 days): BQL (BQL—Below Quantitation Limit, <0.100 ng/mL) | Example 18 plasma concentrations (SC equivalent of EFdA, Monkey 1002, 32 days): BQL (BQL—Below Quantitation Limit, <0.100 ng/mL) | Example 18 plasma concentrations (SC equivalent of EFdA, Monkey 1002, 39 days): BQL (BQL—Below Quantitation Limit, <0.100 ng/mL) | Example 18 plasma concentrations (SC equivalent of EFdA, Monkey 1002, 50 days): BQL (BQL—Below Quantitation Limit, <0.100 ng/mL) | Example 18 plasma concentrations (SC equivalent of EFdA, Monkey 1002, 53 days): BQL (BQL—Below Quantitation Limit, <0.100 ng/mL) | Example 18 plasma concentrations (SC equivalent of EFdA, Monkey 1002, 57 days): BQL (BQL—Below Quantitation Limit, <0.100 ng/mL) | EFdA plasma concentrations (SC equivalent of EFdA, Monkey 1003, 0.021 days): BQL (BQL—Below Quantitation Limit, <0.100 ng/mL) | EFdA plasma concentrations (SC, Mean, 0.021 days): BQL (BQL—Below Quantitation Limit, <0.100 ng/mL) | Example 18 plasma concentrations (SC, Mean, 17 days): BQL (BQL—Below Quantitation Limit, <0.100 ng/mL) | EFdA plasma concentrations (SC, Monkey 1001, 0.021 days): BQL (BQL—Below Quantitation Limit, <0.100 ng/mL) | Example 18 plasma concentrations (SC, Monkey 1001, 25 days): BQL (BQL—Below Quantitation Limit, <0.100 ng/mL) | Example 18 plasma concentrations (SC, Monkey 1001, 57 days): BQL (BQL—Below Quantitation Limit, <0.100 ng/mL) | Example 18 plasma concentrations (SC, Monkey 1002, 17 days): BQL (BQL—Below Quantitation Limit, <0.100 ng/mL) | Example 18 plasma concentrations (SC, Monkey 1002, 19 days): BQL (BQL—Below Quantitation Limit, <0.100 ng/mL) | Example 18 plasma concentrations (SC, Monkey 1002, 25 days): BQL (BQL—Below Quantitation Limit, <0.100 ng/mL) | Example 18 plasma concentrations (SC, Monkey 1002, 36 days): BQL (BQL—Below Quantitation Limit, <0.100 ng/mL) | Example 18 plasma concentrations (SC, Monkey 1002, 46 days): BQL (BQL—Below Quantitation Limit, <0.100 ng/mL) | EFdA plasma concentrations (SC, Monkey 1003, 0.042 days): BQL (BQL—Below Quantitation Limit, <0.100 ng/mL) | Clinical observations and dose site reactions (cynomolgus monkey, single SC or IM injection, 5 mg parent/kg): All animals appeared normal at the time of each observation and no dose site reactions were observed | concentration at 0.021 days (male, cynomolgus monkey, plasma, intramuscular, 20 mg/kg equivalent of EFdA, IM 20 mg/kg equivalent of EFdA, Mean, 0.021 days, read-out: Example 18 plasma concentrations): 11.9 ng/mL | concentration at 0.042 days (male, cynomolgus monkey, plasma, intramuscular, 20 mg/kg equivalent of EFdA, IM 20 mg/kg equivalent of EFdA, Mean, 0.042 days, read-out: Example 18 plasma concentrations): 15 ng/mL | concentration at 0.125 days (male, cynomolgus monkey, plasma, intramuscular, 20 mg/kg equivalent of EFdA, IM 20 mg/kg equivalent of EFdA, Mean, read-out: Example 18 plasma concentrations): 28.5 ng/mL | concentration at 0.208 days (male, cynomolgus monkey, plasma, intramuscular, 20 mg/kg equivalent of EFdA, IM 20 mg/kg equivalent of EFdA, Mean, 0.208 days, read-out: Example 18 plasma concentrations): 28.3 ng/mL | concentration at 0.292 days (male, cynomolgus monkey, plasma, intramuscular, 20 mg/kg equivalent of EFdA, IM 20 mg/kg equivalent of EFdA, Mean, 0.292 days, read-out: Example 18 plasma concentrations): 18.3 ng/mL | concentration at 1 days (male, cynomolgus monkey, plasma, intramuscular, 20 mg/kg equivalent of EFdA, IM 20 mg/kg equivalent of EFdA, Mean, 1 days, read-out: Example 18 plasma concentrations): 4.49 ng/mL | concentration at 2 days (male, cynomolgus monkey, plasma, intramuscular, 20 mg/kg equivalent of EFdA, IM 20 mg/kg equivalent of EFdA, Mean, 2 days, read-out: Example 18 plasma concentrations): 0.52 ng/mL | concentration at 3 days (male, cynomolgus monkey, plasma, intramuscular, 20 mg/kg equivalent of EFdA, IM 20 mg/kg equivalent of EFdA, Mean, 3 days, read-out: Example 18 plasma concentrations): 0.505 ng/mL | concentration at 8 days (male, cynomolgus monkey, plasma, intramuscular, 20 mg/kg equivalent of EFdA, IM 20 mg/kg equivalent of EFdA, Mean, 8 days, read-out: Example 18 plasma concentrations): 0.187 ng/mL | concentration at 10 days (male, cynomolgus monkey, plasma, intramuscular, 20 mg/kg equivalent of EFdA, IM 20 mg/kg equivalent of EFdA, Mean, 10 days, read-out: Example 18 plasma concentrations): 0.173 ng/mL | concentration at 17 days (male, cynomolgus monkey, plasma, intramuscular, 20 mg/kg equivalent of EFdA, IM 20 mg/kg equivalent of EFdA, Mean, 17 days, read-out: Example 18 plasma concentrations): 0.145 ng/mL | concentration at 19 days (male, cynomolgus monkey, plasma, intramuscular, 20 mg/kg equivalent of EFdA, IM 20 mg/kg equivalent of EFdA, Mean, 19 days, read-out: Example 18 plasma concentrations): 0.124 ng/mL | concentration at 22 days (male, cynomolgus monkey, plasma, intramuscular, 20 mg/kg equivalent of EFdA, IM 20 mg/kg equivalent of EFdA, Mean, 22 days, read-out: Example 18 plasma concentrations): 0.13 ng/mL | concentration at 25 days (male, cynomolgus monkey, plasma, intramuscular, 20 mg/kg equivalent of EFdA, IM 20 mg/kg equivalent of EFdA, Mean, 25 days, read-out: Example 18 plasma concentrations): 0.151 ng/mL | concentration at 0.021 days (male, cynomolgus monkey, plasma, intramuscular, 20 mg/kg equivalent of EFdA, IM 20 mg/kg equivalent of EFdA, Monkey 2001, 0.021 days, read-out: Example 18 plasma concentrations): 21.8 ng/mL | concentration at 0.042 days (male, cynomolgus monkey, plasma, intramuscular, 20 mg/kg equivalent of EFdA, IM 20 mg/kg equivalent of EFdA, Monkey 2001, 0.042 days, read-out: Example 18 plasma concentrations): 29.2 ng/mL | concentration at 0.125 days (male, cynomolgus monkey, plasma, intramuscular, 20 mg/kg equivalent of EFdA, IM 20 mg/kg equivalent of EFdA, Monkey 2001, read-out: Example 18 plasma concentrations): 53.7 ng/mL
